Assay results reported in patent US5677282A (Proscript, Inc., priority 1995, dated 1997).

Experiments:
Type in all cases: biochemical
[1] = molecular target: human neutrophil collagenase (Homo sapiens, UniProt P22894); experiment: Assay of human neutrophil collagenase inhibition activity; conditions: human neutrophil collagenase 2 nM, H-150 buffer pH 7.4; read-out: Ki(app)
Procedure: H-150 buffer, pH 7.4, was prepared by adding CaCl2 H2 O (1.47 grams), NaCl (8.77 grams) and N-[2-hydroxyethyl]piperazine-N'-[2-ethanesulfonic acid] (23.83 grams) to distilled and deionized water and then bringing the final volume of the solution to 1 liter.
A reaction mixture with a final volume of 2.0 mL was prepared from H-150 buffer, human neutrophil collagenase (Schnierer, et al., Blochem. Biophys. Res. Comm., 191:319 (1993); Knight et al., Federation of Europena Biochemical Societies 296:263 (1992)) (2 nM). Coumarin peptide substrate (4 μL of a 5 mM solution in dimethyl sulfoxide) was added to the reaction mixture. The rate of hydrolysis was determined for about 100-200 seconds by measuring the fluorescence of the reaction at ex328 nanometers and […] using a Hitachi F-2000 Fluorescence Spectrophotometer.
(§1) 2 μL of a 10 mM inhibitor stock solution (in dimethyl sulfoxide) is added and the reduction in the rate of hydrolysis is determined. Additional 2 μL aliquots of the stock inhibitor solution is added until a 30% to 70% inhibition is observed. Ki is calculated on the assumption of simple competitive inhibition and that the substrate concentration is much less than Km.

[2] = molecular target: stromelysin (Homo sapiens, UniProt P08254); experiment: Assay of stromelysin inhibition activity (fluorogenic coumarin peptide substrate); conditions: trypsin-activated stromelysin 2 nM, H-150 buffer pH 7.4, room temperature; read-out: Ki(app)
Procedure: Stromelysin was first activated with trypsin. This was done by preparing a reaction mixture in H-150 (H-150 consists of 10 mM CaCl2, 150 mM NaCl and 100 mM HEPES at pH 7.4) containing a final concentration of 25 μg/mL trypsin and 2.2 μM of stromelysin (Marcy et al., Biochemistry,30:6476 (1991); Koklitis et al., Biochem. J., 376:217 (1991). The reaction was incubated for 30 minutes at 37° C. and then quenched by adding trypsin inhibitor agarose to the reaction mixture at a 20 fold excess with respect to trypsin.
The reaction mixture was centrifuged at 14,000 rpm (16,000 ×g) for 30 minutes using an Eppendorf Centrifuge 5415C. The supernant, which contains activated stromelysin, was concentrated with a Centricon 10 (5000 g, 1 hour). A sample was analyzed by Bradford total protein assay and 12% SDS polyacrylamide gel electrophoresis.
All steps of the stromelysin inhibition assay were performed at room temperature. Assay solutions were prepared for each inhibitor tested. Activated stromelysin was added to a stirred covelte to a final concentration of 2 nM in 2 mL of H-150 buffer. 4 μL 5 mM coumarin peptide substrate was dissolved in DMSO and the initial rate of hydrolysis was measured for 100-200 seconds.
Substrate hydrolysis was assessed by fluorescence using a slit width of 10:10, excitation at 328 nm and emission at 393 nm. Ki was calculated based on the assumption of simple competitive inhibition and a substrate concentration much less than Km. 2 μL of 10 mM inhibitor in DMSO was added and the reduction in hydrolysis rate measured. The addition of 2 μL of inhibitor was continued until a 30-70% inhibition was observed.

[3] = molecular target: T1, 72 kD gelatinase (Homo sapiens, UniProt P08253); experiment: Assay of 72 KD gelatinase inhibition activity; conditions: 72KD gelatinase 180 pM, H-150 buffer pH 7.4; read-out: Ki(app)
T1 sequence (P08253 110-660): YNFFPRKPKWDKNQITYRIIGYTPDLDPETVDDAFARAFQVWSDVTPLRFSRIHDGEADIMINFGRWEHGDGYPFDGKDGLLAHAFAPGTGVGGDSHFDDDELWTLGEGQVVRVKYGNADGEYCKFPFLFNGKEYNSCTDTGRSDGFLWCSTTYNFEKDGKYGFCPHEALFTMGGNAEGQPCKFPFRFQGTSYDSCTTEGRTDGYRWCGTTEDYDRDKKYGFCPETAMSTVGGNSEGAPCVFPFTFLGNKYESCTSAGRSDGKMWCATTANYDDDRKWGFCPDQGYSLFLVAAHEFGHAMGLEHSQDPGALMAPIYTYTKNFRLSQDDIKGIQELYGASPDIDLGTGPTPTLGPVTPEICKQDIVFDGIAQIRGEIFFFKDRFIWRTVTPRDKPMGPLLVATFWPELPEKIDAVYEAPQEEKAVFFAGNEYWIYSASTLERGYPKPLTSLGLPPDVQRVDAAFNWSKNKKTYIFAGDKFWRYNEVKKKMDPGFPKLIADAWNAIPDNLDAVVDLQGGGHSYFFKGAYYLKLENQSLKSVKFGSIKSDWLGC
Procedure: H-150 buffer, pH 7.4, was prepared by CaCl2 H2O (1.47 grams), NaCl (8.77 grams) and N-[2 -hydroxyethyl]piperazine-N'-[2-ethanesulfonic acid](23.83 grams) to distilled and deionized water and then bring the final volume of the solution to 1 liter. An reaction mixture having a final volume of 250 μL was prepared with H-150 buffer, 40 μgrams of Pro-72KD gelatinase (Strongin, et al., J. Biol. Chem. 268:14033 (1993); Goldberg, et al., J. Biol. Chem., 267:4583 (1992); Kleiner, et al., Biochemistry 32:1583 (1993)) and p-aminophenyl mercuric acetate (Sigma Chemical Co., St. Louis, Mo.) (1 mM). The reaction mixture was then incubated for 3 hours at 25° C.
The reaction mixture was applied to a NAP-5 column (G-25 SEPHADEX™, Pharmacia). Fractions containing […] were identified using 12% SDS polyacrylamide gel electrphoresis and concentrated to about 100-200 μliters by centrifigation (5000 g, 15 minutes).
(§2) A solution containing H-150 buffer (2.0 mL), 72KD gelatinase (180 pM) and ethylphenolpoly(ethylene-glycolether)n (Boerhringer Mannheim) (1.3 μM) was prepared in a stirred cuvette. Coumarin peptide substrate (2 μL of a 1 mM solution in dimethyl sulfoxide) was added to the reaction mixture. The rate of hydrolysis was determined for about 100-200 seconds by measuring the fluorescence of the reaction at ex328 nanometers and […] using a Hitachi F-2000 Fluorescence Spectrophotometer.
as §1

[4] = molecular target: 92 kD gelatinase (Homo sapiens, UniProt P14780); experiment: Assay of 92 KD gelatinase inhibition activity; conditions: 92KD gelatinase 25 pM, H-150 buffer pH 7.4; read-out: Ki(app)
Procedure: H-150 buffer, pH 7.4, was prepared by CaCl2 H2 O (1.47 grams), NaCl (8.77 grams) and N-[2-hydroxyethyl]piperazine-N'-[2-ethanesulfonic acid](23.83 grams) to distilled and deionized water and then bring the final volume of the solution to 1 liter. A reaction mixture having a final volume of 500 μL was prepared with H-150 buffer, 200 μgrams of Pro-92KD gelatinase (Strongin et al., J. Biol. Chem., 268:14033 (1993); Goldberg, et al., J. Biol. Chem., 267:4583 (1992); Okada et al., J. Biol. Chem. 267:21712 (1992)), p-aminophenyl mercuric acetate (Sigma Chemical Co., St. Louis, Mo.) (1 mM) and Brij (dodexylpoly(oxyethyleneglycolether))(0,008% w/v). The reaction mixture wsa then incubated for 24 hours at 37° C.
The reaction mixture was applied to a NAP-5 column (G-25 SEPHADEX™, Pharmacia). Fractions containing 72KD gelatinase were identified using 12% polyacrylamide gel electrophoresis and concentrated to about 100-200 μliters by centrifigation (5000 g, 1 hour).
as §2, with “mL), 92KD” for “mL), 72KD”, “gelatinase (25” for “gelatinase (180”, “Mannheim) (4.0” for “Mannheim) (1.3”, “substrate (4” for “substrate (2”, “a 5” for “a 1”
as §1

stromelysin, sequence (P08254 100-477): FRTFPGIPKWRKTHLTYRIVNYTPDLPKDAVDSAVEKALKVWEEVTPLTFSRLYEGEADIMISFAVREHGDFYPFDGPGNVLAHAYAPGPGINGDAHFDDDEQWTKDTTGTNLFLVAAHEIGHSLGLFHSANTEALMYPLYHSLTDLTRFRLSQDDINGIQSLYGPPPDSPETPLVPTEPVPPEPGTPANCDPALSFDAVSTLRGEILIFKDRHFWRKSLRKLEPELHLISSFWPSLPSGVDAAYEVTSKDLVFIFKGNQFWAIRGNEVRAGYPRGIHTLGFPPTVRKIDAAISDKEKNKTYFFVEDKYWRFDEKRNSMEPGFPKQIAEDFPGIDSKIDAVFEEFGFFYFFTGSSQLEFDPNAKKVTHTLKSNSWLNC
92 kD gelatinase, sequence (P14780 107-707): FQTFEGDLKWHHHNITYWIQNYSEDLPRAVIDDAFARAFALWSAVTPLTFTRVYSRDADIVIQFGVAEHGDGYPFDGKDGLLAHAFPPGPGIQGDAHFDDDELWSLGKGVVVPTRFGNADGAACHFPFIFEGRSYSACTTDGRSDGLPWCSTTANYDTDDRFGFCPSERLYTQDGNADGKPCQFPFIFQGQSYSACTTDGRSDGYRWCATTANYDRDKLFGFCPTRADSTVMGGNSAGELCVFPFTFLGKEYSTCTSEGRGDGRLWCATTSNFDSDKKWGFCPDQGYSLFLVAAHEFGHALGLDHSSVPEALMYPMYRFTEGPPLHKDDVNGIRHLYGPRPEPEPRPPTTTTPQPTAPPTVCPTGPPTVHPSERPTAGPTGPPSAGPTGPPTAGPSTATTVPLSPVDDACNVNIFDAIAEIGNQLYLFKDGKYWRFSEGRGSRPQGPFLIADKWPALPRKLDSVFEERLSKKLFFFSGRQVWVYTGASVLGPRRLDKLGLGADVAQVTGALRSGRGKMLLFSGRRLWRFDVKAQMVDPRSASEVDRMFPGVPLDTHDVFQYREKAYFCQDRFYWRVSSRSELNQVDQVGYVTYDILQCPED
human neutrophil collagenase, sequence (P22894 101-467): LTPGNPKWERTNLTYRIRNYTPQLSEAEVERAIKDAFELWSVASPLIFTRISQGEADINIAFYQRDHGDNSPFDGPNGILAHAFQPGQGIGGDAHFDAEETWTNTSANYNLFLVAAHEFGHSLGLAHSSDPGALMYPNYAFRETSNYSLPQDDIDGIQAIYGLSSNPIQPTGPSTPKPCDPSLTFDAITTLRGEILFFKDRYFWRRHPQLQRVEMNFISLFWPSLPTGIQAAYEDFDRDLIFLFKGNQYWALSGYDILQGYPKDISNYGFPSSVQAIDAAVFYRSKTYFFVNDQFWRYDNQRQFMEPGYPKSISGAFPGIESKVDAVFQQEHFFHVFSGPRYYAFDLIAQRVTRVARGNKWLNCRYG

Structure (SMILES)	Ki [1]	Ki [2]	Ki [3]	Ki [4]
CC(C)[C@H](NC(=O)[C@H](Cc1ccccc1)NC(=O)c1ccc(NS(=O)(=O)c2ccc(C(C)(C)C)cc2)cc1)C(=O)Nc1n[nH]c(=S)s1 [5-(N-(4-(4-t-Butylphenylsulfonylamino)benzoyl)-phenylalanyl-valylamino)-1,3,4-thiadiazole-2-thione]	1.04 nM	44 nM	0.68 nM	0.31 nM
CC(C)[C@H](NC(=O)[C@H](Cc1ccccc1)NC(=O)c1ccc(-c2ccccc2)cc1)C(=O)Nc1n[nH]c(=S)s1 [5-(N-(4-phenylbenzoyl)phenylalanyl-valylamino)-1,3,4-thiadiazole-2-thione]	2.6 nM	82 nM	0.8 nM	0.31 nM
CC(C)C[C@H](NC(=O)[C@H](Cc1ccc(OCc2ccccc2)cc1)NC(=O)OCc1ccccc1)C(=O)Nc1n[nH]c(=S)s1 [5-(N-benzyloxycarbonyl-((O-benzyl)tyrosyl)-leucylamino)-1,3,4-thiadiazole-2-thione]	1.83 nM	96 nM	0.24 nM	0.29 nM
CC(C)[C@H](NC(=O)[C@H](CSCc1ccccc1)NC(=O)OCc1ccccc1)C(=O)Nc1n[nH]c(=S)s1 [5-(N-benzyloxycarbonyl-((S-benzyl)cysteinyl)-valylamino)-1,3,4-thiadiazole-2-thione]	3.2 nM	202 nM	1.1 nM	2.1 nM
CC(C)C(NC(=O)C(Cc1ccc(NC(=O)OCc2ccccc2)cc1)NC(=O)OCc1ccccc1)C(=O)Nc1n[nH]c(=S)s1 (centres unmarked) [5-(N-benzyloxycarbonyl-((p-benzyloxycarbonylamino)phenyl-alanyl)-valylamino)-1,3,4-thiadiazole-2-thione]	1.17 nM	62 nM	0.29 nM	0.145 nM
O=C(CCC(NC(=O)OCc1ccccc1)C(=O)NC(C(=O)Nc1n[nH]c(=S)s1)c1ccccc1)NCCc1ccccc1 (centres unmarked) [5-(N-benzyloxycarbonyl-(γ-N-2-phenylethyl)glutamylphenylglycylamino)-1,3,4-thiadiazole-2-thione]	0.54 nM	57 nM	0.52 nM	0.17 nM
CSCC[C@H](NC(=O)[C@H](Cc1ccccc1)NC(=O)OCc1ccccc1)C(=O)Nc1n[nH]c(=S)s1 [5-(N-benzyloxycarbonyl-phenylalanyl-methionylamino)-1,3,4-thiadiazole-2-thione]	7.8 nM	1120 nM	1.7 nM	3.6 nM
CC(C)[C@H](NC(=O)[C@H](Cc1c[nH]c2ccccc12)NC(=O)[C@H](Cc1ccccc1)NC(=O)OCc1ccccc1)C(=O)Nc1n[nH]c(=S)s1 [5-(N-benzyloxycarbonyl-phenylalanyl-tryptonyl-valylamino)-1,3,4-thiadiazole-2-thione]	2.4 nM	60 nM	0.71 nM	0.36 nM
CC(C)(C)OC(=O)N[C@@H](Cc1ccc(OCc2ccccc2)cc1)C(=O)NC(C(=O)Nc1n[nH]c(=S)s1)c1ccccc1 (some centres unmarked) [5-(N-t-Butoxycarbonyl-(O-benzyl)tyrosyl-phenylglycineamino)-1,3,4-thiadiazole-2-thione]	0.99 nM		0.51 nM	0.245 nM
